We go through four molecules from ChEMBL document CHEMBL5518169, “Discovery of a 1,6-naphthyridin-4-one-based AXL inhibitor with improved pharmacokinetics and enhanced in vivo antitumor efficacy” (Eur J Med Chem, 2024).

Data set [1] can be described thus: Antitumor activity against mouse BaF3/TEL-AXL cells xenografted in mouse assessed as tumor growth inhibition at 50 mg/kg, po administered for 7 days. The conditions noted are these: 168 h, time 7 day, read-out: TGI. Format: functional.
Data set [2] can be described thus: Toxicity in mouse xenografted with mouse BaF3/TEL-AXL cells assessed as body weight loss at 50 mg/kg, po administered for 7 days. Format: organism-based. The conditions noted are these: in vivo, 168 h, time 7 day.
Data set [3] can be described thus: Metabolic stability in human liver microsomes assessed as parent compound remaining preincubated with compound for 10 mins followed by NADPH addition and measured after 60 mins by LC-MS/MS analysis. The data set is classed as ADME, Microsome. The note with it: time 70 min, read-out: Stability.
Data set [4] is described as follows: Cmax in Sprague-Dawley rat at 3 mg/kg, po measured upto 24 hrs by LC-MS/MS analysis. Format: ADME, organism-based. The note with it: in vivo.
The test system of another data set is BaF3/TEL-AXL. The experiment in a line: Antitumor activity against mouse BaF3/TEL-AXL cells xenografted in mouse assessed as tumor regression at 50 to 100 mg/kg, po administered for 7 days. The data set is classed as functional, organism-based. The conditions noted are these: dose 50-100 mg/kg, time 7.0 day.
The nature of data set [5]: AUC (0 to infinity) in Sprague-Dawley rat at 3 mg/kg, po measured upto 24 hrs by LC-MS/MS analysis. Format: ADME, organism-based. The conditions noted are these: in vivo.
Data set [6] concerns the target T1, Tyrosine-protein kinase receptor UFO (Mus musculus) (UniProt Q00993).
T1 sequence (whole entry): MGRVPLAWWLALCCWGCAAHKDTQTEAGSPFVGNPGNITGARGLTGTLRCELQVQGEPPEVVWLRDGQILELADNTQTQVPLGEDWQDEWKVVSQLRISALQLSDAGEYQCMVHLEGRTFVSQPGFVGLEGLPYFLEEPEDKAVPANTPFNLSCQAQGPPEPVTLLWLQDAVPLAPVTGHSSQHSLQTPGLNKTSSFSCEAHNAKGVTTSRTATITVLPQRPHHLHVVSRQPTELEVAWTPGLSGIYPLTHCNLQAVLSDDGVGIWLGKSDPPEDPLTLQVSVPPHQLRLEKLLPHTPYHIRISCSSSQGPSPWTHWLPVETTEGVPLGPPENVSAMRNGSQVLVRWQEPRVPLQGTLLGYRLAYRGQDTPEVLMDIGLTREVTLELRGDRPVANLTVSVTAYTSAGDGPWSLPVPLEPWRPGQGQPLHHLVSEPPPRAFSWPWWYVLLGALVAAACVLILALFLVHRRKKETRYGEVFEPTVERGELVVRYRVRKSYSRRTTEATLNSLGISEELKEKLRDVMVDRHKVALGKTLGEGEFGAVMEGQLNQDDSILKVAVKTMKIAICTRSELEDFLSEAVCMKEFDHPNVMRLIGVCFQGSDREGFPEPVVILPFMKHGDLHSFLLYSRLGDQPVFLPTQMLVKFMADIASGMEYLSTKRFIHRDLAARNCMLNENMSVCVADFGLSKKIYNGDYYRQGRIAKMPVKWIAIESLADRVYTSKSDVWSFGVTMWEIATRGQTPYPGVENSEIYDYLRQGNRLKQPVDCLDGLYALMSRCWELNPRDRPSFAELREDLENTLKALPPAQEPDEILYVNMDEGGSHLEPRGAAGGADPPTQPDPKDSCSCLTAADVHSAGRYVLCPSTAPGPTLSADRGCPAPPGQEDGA
As to the kind of experiment: Inhibition of AXL phosphorylation in mouse BaF3/TEL-AXL cells incubated for 2 hrs by Western blot analysis. The note with it: dose 2-500 nM. The data set is classed as cell-based. A general note: A western blot detects proteins with antibodies after separation by electrophoresis.

The nature of data set [7]: Half life in Sprague-Dawley rat at 3 mg/kg, po measured upto 24 hrs by LC-MS/MS analysis. Format: ADME, organism-based. The note with it: in vivo.
A short description of data set [8]: Tmax in Sprague-Dawley rat at 3 mg/kg, po measured upto 24 hrs by LC-MS/MS analysis. The note with it: in vivo. Format: ADME, organism-based.
Another data set concerns MKN-45. The experiment in a line: cells. The note with it: Homo sapiens, MKN-45, 72 h.
Data set [9] in a line: MRT (0 to infinity) in Sprague-Dawley rat at 3 mg/kg, po measured upto 24 hrs by LC-MS/MS analysis. The data set is classed as ADME, organism-based. The note with it: in vivo.
A short description of data set [10]: Metabolic stability in human liver microsomes assessed as half life preincubated with compound for 10 mins followed by NADPH addition and measured after 60 mins by LC-MS/MS analysis. Format: ADME, Microsome. The note with it: time 70 min. (Liver microsomes are vesicles of endoplasmic reticulum, rich in cytochrome P450 enzymes.)
Data set [11] in a line: Antitumor activity against mouse BaF3/TEL-AXL cells xenografted in mouse assessed as tumor growth inhibition at 100 mg/kg, po administered for 7 days. Format: functional. The note with it: 168 h, time 7 day, read-out: TGI.
The target in data set [12] is RAC-alpha serine/threonine-protein kinase (Mus musculus) (UniProt P31750). The experiment in a line: Inhibition of AKT phosphorylation in mouse BaF3/TEL-AXL cells incubated for 2 hrs by Western blot analysis. Format: cell-based. The note with it: dose 2-500 nM.
The nature of the next data set: cells. The conditions noted are these: Mus musculus, BaF3/TEL-AXL, 72 h.
Data set [13] can be described thus: Toxicity in mouse xenografted with mouse BaF3/TEL-AXL cells assessed as body weight loss at 25 to 100 mg/kg, po administered for 7 days. The data set is classed as organism-based. The note with it: in vivo, 168 h, dose 25-100 mg/kg, time 7 day.
Data set [14] can be described thus: Antitumor activity against mouse BaF3/TEL-AXL cells xenografted in mouse assessed as tumor growth inhibition at 25 mg/kg, po administered for 7 days. Format: functional. The note with it: 168 h, time 7 day, read-out: TGI.
For data set [15], the target named is T2, Tyrosine-protein kinase receptor UFO (Homo sapiens, UniProt P30530).
T2 sequence (P30530 whole entry): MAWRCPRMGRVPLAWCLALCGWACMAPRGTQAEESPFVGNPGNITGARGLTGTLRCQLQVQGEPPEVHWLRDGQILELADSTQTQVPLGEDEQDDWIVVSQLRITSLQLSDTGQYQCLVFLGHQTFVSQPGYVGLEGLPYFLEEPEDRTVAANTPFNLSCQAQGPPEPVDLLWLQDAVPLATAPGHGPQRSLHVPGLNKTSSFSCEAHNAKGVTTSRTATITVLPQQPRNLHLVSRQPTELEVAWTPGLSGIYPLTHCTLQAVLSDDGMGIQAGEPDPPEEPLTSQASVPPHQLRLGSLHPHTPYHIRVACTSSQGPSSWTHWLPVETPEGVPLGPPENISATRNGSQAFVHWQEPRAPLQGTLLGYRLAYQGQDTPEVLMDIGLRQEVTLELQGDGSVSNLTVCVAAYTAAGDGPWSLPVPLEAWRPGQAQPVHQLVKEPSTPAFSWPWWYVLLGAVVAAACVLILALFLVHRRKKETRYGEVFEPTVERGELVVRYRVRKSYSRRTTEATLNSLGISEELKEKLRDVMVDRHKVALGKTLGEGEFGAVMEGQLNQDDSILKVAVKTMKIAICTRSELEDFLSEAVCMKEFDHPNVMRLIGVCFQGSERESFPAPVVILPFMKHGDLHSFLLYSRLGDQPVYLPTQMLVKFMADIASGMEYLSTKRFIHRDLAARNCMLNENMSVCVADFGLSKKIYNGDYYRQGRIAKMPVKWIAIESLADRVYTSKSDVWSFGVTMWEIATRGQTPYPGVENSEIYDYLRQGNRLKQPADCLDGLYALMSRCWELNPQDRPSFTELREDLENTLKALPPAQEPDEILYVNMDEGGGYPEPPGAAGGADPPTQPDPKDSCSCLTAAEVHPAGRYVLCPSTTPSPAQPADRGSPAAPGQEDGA
Description: Inhibition of AXL (unknown origin) by ELISA analysis

The source made the active and inactive calls. The calls are words filed in the database; no cut-off is given here.

RAC-alpha serine/threonine-protein kinase (Mus musculus), sequence (P31750 whole entry): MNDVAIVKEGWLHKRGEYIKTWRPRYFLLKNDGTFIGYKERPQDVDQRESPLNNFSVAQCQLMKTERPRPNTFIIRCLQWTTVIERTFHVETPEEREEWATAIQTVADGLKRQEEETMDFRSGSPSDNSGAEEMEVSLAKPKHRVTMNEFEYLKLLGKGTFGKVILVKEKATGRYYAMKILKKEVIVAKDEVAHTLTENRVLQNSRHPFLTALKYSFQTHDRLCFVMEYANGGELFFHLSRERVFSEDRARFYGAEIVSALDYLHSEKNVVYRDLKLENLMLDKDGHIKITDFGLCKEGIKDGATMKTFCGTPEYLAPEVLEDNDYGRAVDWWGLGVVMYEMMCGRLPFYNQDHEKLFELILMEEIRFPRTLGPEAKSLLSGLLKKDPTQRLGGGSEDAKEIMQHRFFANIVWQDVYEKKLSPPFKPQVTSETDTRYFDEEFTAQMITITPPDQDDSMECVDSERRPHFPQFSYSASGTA
Description for MKN-45: Antiproliferative activity against human MKN-45 cells assessed as inhibition of cell proliferation incubated for 72 hrs by CCK-8 assay

Regarding `Nc1nc(Nc2ccc3c(c2)CC[C@@H](N2CCCC2)CC3)nn1-c1cc2c(nn1)-c1ccccc1CCC2` [BEMCENTINIB], the inhibition in vivo at 50 mg/kg in [1] came to 107%. In data set [2], the Activity entry was “Non-Toxic”.

Consider `CC(C)n1cc(-c2ccc(F)cc2)c(=O)c2c(Nc3ccc(-c4cc(-c5cnn(C)c5)cnc4N)c(F)c3)nccc21`, for which the remaining at 1 h in data set [3] came out at 76.3%. For the same molecule, in data set [4], the Cmax (commonly the maximum level reached in the sampled fluid or tissue) is 2910 ng/mL. For the same molecule, in data set [1], the inhibition in vivo at 50 mg/kg turned out to be 104%. For the same molecule, the result with BaF3/TEL-AXL was Active. Besides, the AUC(0-inf) (in general, total exposure, with the tail of the curve extrapolated) in [5] was found to be 59800 ng·h/mL. Moreover, the inhibition result in data set [6] and in data set [12] was “Dose-Dependent Effect” throughout. In addition, the figures for the half-life in data set [7] and in data set [10] were 10.1 h and 2.57 h, respectively. In data set [8], the Tmax (as a rule, the time at which the peak concentration occurs) stood at 2 h. Moreover, the IC50 (as a rule, the concentration that inhibits the measured activity by half) is above 100 nM in the data set on MKN-45 and below 1 nM in the data set “cells”. For the same molecule, in data set [9], the MRT inf (usually the average time that molecules of a dose stay in the body) was found to be 16.5 h. Besides, in data set [11], the inhibition in vivo at 100 mg/kg amounted to 105%. Moreover, the Activity result in data set [13] was “Non-Toxic”. In addition, the inhibition in vivo at 25 mg/kg in [14] stood at 89.8%.

In the case of `CC(C)n1cc(C(=O)Nc2cc(F)c(-c3c[nH]c4ncnc(N)c34)cc2F)c(=O)c(-c2ccc(F)cc2)c1`, the IC50 in data set [15] was below 0.2 nM.

In the case of `CC(C)n1cc(-c2ccc(F)cc2)c(=O)c2c(Nc3ccc(-c4cn(C)c5ncnc(N)c45)c(F)c3)nccc21`, the remaining at 1 h in [3] was 47%. This molecule had a Cmax in data set [4] of 187 ng/mL. In data set [5], this molecule returned an AUC(0-inf) of 1300 ng·h/mL. In addition, the half-life (in general, how long it takes for the measured level to halve) is 3.82 h in data set [7] and 0.765 h in [10]. In data set [8], the Tmax was 1.5 h. Further, the values for the IC50 in the data set on MKN-45 and in the data set “cells” were above 100 nM and 1 nM, respectively. Besides, the MRT inf in data set [9] is 5.96 h.
